Laboratory results as given in patent US20250154169A1, “COMPOUNDS AND METHODS FOR MODULATING SPLICING” (REMIX THERAPEUTICS INC., priority 2021, published 2025).
Read-outs that look alike come from different tables or passages of the source.

How the values were obtained:
Type in all cases: cell-based, human
HTT mRNA [1] = assay: Splicing RT-qPCR gene panel, HTT canonical junction (CJ) mRNA; details: Homo sapiens, Tables 4A/4B, read-out: HTT (IC50, decrease in CJ mRNA, gene panel)
Description: (§1) Compounds described herein were used to modulate RNA transcript abundance in cells. The expression of a target mRNA was measured by detecting the formation of an exon-exon junction in the canonical transcript (CJ). A compound mediated exon-inclusion event was detected by observing an increase in formation of a new junction with an alternative exon (AJ). Real-time qPCR assays were used to detect these splicing switches and interrogate the potency of various compounds towards different target genes. A high-throughput real time quantitative PCR (RT-qPCR) assay was developed to measure these two isoforms of the mRNA (CJ and AJ) for exemplary genes, such as HTT, SMN2, and MYB, together with a control housekeeping gene, GAPDH or GUSB or PPIA, used for normalization. Briefly, the A673 or K562 cell line was treated with various compounds described herein (e.g., compounds of Formula (I)). After treatment, the levels of the HTT, MYB, or SMN2 mRNA targets were determined from each sample of cell lysate by cDNA synthesis followed by qPCR.
(§2) The A673 cell line was cultured in DMEM with 10% FBS. Cells were diluted with full growth media and plated in a 96-well plate (15,000 cells in 100 ul media per well). The plate was incubated at 37° C. with 5% CO2 for 24 hours to allow cells to adhere. An 11-point 3-fold serial dilution of the compounds was made in DMSO then diluted in media in an intermediate plate. Compounds were transferred from the intermediate plate to the cell plate with the top dose at a final concentration of 10 uM in the well. Final DMSO concentration was kept at or below 0.25%. The cell plate was returned to the incubator at 37° C. with 5% CO2 for an additional 24 hours.
(§3) The K562 cell line was cultured in IMDM with 10% FBS. For K562, cells were diluted with full growth media and plated in either a 96-well plate (50,000 cells in 50 uL media per well) or a 384-well plate (8,000-40,000 cells in 45 uL media per well). An 11-point 3-fold serial dilution of the compounds were made in DMSO then diluted in media in an intermediate plate. Compound was transferred from the intermediate plate to the cell plate with the top dose at a final concentration of 10 uM in the well. Final DMSO concentration was kept at or below 0.25%. Final volume was 100 uL for 96-well plate and 50 uL for 384-well plate. The cell plate was then placed in an incubator at 37° C. with 5% CO2 for 24 hours.
(§4) The cells were then gently washed with 50 uL-100 uL cold PBS before proceeding to addition of lysis buffer. 30 uL-50 uL of room temperature lysis buffer with DNAse I (and optionally RNAsin) was added to each well. Cells were shaken/mixed thoroughly at room temperature for 5-10 minutes for lysis to take place and then 3 uL-5 uL of room temperature stop solution was added and wells were shaken/mixed again. After 2-5 minutes, the cell lysate plate was transferred to ice for RT-qPCR reaction setup. The lysates could also be frozen at −80° C. for later use.
(§5) In some cases, a direct lysis buffer was used. An appropriate volume of 3× lysis buffer (10 mM Tris, 150 mM NaCl, 1.5%-2.5% Igepal and 0.1-1 U/uL RNAsin, pH 7.4) was directly added to either K562 or A673 cells in media and mixed by pipetting 3 times. The plates were then incubated at room temperature with shaking/rocking for 20-50 minutes to allow for lysis to take place. After this time, the cell lysate plate was transferred to ice to set up for the RT-qPCR reactions. The lysates could also be frozen at −80° C. for later use.
(§6) To set up 10 uL RT-qPCR reactions, cell lysates were transferred to 384-well qPCR plates containing the master mix according to the table below. The plates were sealed, gently vortexed, and spun down before the run. The volumes were adjusted accordingly in some instances where the reaction was carried in 20 μL. The table below summarizes the components of the RT-qPCR reactions:
(§7) The RT-qPCR reaction was performed using a QuantStudio (ThermoFisher) under the following fast cycling conditions. […]

SMN2 mRNA = assay: Splicing RT-qPCR gene panel, SMN2 canonical junction (CJ) mRNA; details: Homo sapiens, Tables 4A/4B, read-out: SMN2 (IC50, decrease in CJ mRNA, gene panel)
Description: as §1, §2, §3, §4, §5, §6, §7

Target C mRNA = assay: Splicing RT-qPCR gene panel, Target C canonical junction (CJ) mRNA; details: Homo sapiens, Tables 4A/4B, read-out: Target C (IC50, decrease in CJ mRNA, gene panel)
Description: as §1, §2, §3, §4, §5, §6, §7

MYB mRNA = assay: Splicing RT-qPCR assay, MYB canonical (CJ) and alternative (AJ) junction mRNA; details: Homo sapiens; for AC50: read-out: MYB AJ (AC50, increase in alternative junction mRNA)
In short: (§8)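 Canonical (CJ) and alternative-exon (AJ) junction mRNAs quantified by one-step RT-qPCR in cell lysates, normalized to housekeeping PPIA for A673 and GAPDH or GUSB for K562. Cells were exposed 24 h at 37 °C to 11-point 3-fold compound series from 10 uM final, with DMSO at or below 0.25%.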

HTT mRNA [2] = assay: Splicing RT-qPCR assay, HTT canonical (CJ) and alternative (AJ) junction mRNA; details: Homo sapiens, A673 or K562 cells, 24 hours compound treatment; for IC50: 24 h, read-out: HTT CJ (IC50, decrease in canonical junction mRNA); for AC50: read-out: HTT AJ (AC50, increase in alternative junction mRNA)
In short: as §8

[3] = 24 h, A673 or K562 cells, 24 hours compound treatment, RT-qPCR
[4] = 24 h, A673 or K562 cells, 24 hours compound treatment, RT-qPCR, read-out: MYB CJ (IC50, decrease in canonical junction mRNA)
[5] = Tables 4A/4B, canonical junction qPCR panel, read-out: MYB (IC50, decrease in CJ mRNA, gene panel)

Row | SMILES | IC50 (HTT mRNA [1]) [µM] | IC50 (SMN2 mRNA) [µM] | IC50 (Target C mRNA) [µM] | IC50 (MYB mRNA; [4]) [µM] | IC50 (MYB mRNA; [5]) [µM] | IC50 (HTT mRNA [2]) [µM] | AC50 (MYB mRNA; [3]) [µM] | AC50 (HTT mRNA [2]) [µM]
1 | Cc1cn2cc(NC(=O)c3ccc(C4CCNCC4)c4c3OCC4)cc(F)c2n1 [Compound 188] | > 10 | 0.1 to 1 | 1 to 10 | 1 to 10 | 1 to 10 | > 10 | 1 to 10 | > 10
2 | Cc1cn2cc(NC(=O)c3ccc(N(C)C4CC(C)(C)NC(C)(C)C4)c4cc(C)oc34)cc(F)c2n1 [Compound 201] | > 10 | 1 to 10 | > 10 | > 10 | > 10 | > 10 | > 10 | > 10
3 | Cc1cn2cc(NC(=O)c3ccc(N4CCC(N(C)C)C4)c4cc(C)oc34)cc(F)c2n1 (stereo not shown) [Compound 202] | > 10 | < 0.1 | > 10 | 0.1 to 1 | 0.1 to 1 | > 10 | < 0.1 | 1 to 10
4 | Cc1cn2cc(NC(=O)c3ccc(N4CCC(N5CCCC5)C4)c4cc(C)oc34)cc(F)c2n1 (stereo not shown) [Compound 204] | 1 to 10 | < 0.1 | 1 to 10 | 0.1 to 1 | 0.1 to 1 | 1 to 10 | 0.1 to 1 | 1 to 10
5 | Cc1cn2cc(NC(=O)c3ccc(N4CC5(CNC5)C4)c4cc(C)oc34)cc(F)c2n1 [Compound 205] | 0.1 to 1 | < 0.1 | 1 to 10 | 0.1 to 1 | 0.1 to 1 | 0.1 to 1 | 0.1 to 1 | 1 to 10
6 | Cc1cn2cc(NC(=O)c3ccc(N4CC5(CN(C)C5)C4)c4cc(C)oc34)cc(F)c2n1 [Compound 206] | 1 to 10 | < 0.1 | > 10 | 0.1 to 1 | 0.1 to 1 | 1 to 10 | 0.1 to 1 | 1 to 10
7 | Cc1cn2cc(NC(=O)c3ccc(C4CCN(C)CC4)c4cn(C)nc34)cc(F)c2n1 [Compound 209] | 0.1 to 1 | 1 to 10 | 0.1 to 1 | < 0.1 | < 0.1 | 0.1 to 1 | < 0.1 | 0.1 to 1
8 | CCN1CCC(c2ccc(C(=O)Nc3cc(F)c4nc(C)cn4c3)c3nn(C)cc23)CC1 [Compound 210] | 0.1 to 1 | < 0.1 | 1 to 10 | < 0.1 | < 0.1 | 0.1 to 1 | < 0.1 | 0.1 to 1
9 | Cc1cn2cc(NC(=O)c3ccc(C4CC(C)(C)NC(C)(C)C4)c4cn(C)nc34)cc(F)c2n1 [Compound 212] | 1 to 10 | 0.1 to 1 | > 10 | 0.1 to 1 | 0.1 to 1 | 1 to 10 | 1 to 10 | > 10

Second part, led by results:

Row | IC50 (HTT mRNA [1]) [µM] | IC50 (SMN2 mRNA) [µM] | IC50 (Target C mRNA) [µM] | IC50 (MYB mRNA; [4]) [µM] | IC50 (MYB mRNA; [5]) [µM] | IC50 (HTT mRNA [2]) [µM] | SMILES | AC50 (MYB mRNA; [3]) [µM] | AC50 (HTT mRNA [2]) [µM]
10 | 1 to 10 | < 0.1 | > 10 | < 0.1 | < 0.1 | 1 to 10 | CNC1CCN(c2ccc(C(=O)Nc3cc(F)c4nc(C)cn4c3)c3nn(C)cc23)C1 (stereo in doubt) [Compound 387, N-{8-fluoro-2-methylimidazo[1,2-a]pyridin-6-yl}-2-methyl-4-[(3R)-3-(methylamino)pyrrolidin-1-yl]indazole-7-carboxamide] | < 0.1 | 1 to 10
11 | > 10 | < 0.1 | > 10 |  | < 0.1 | 1 to 10 | CNC1CCN(c2ccc(C(=O)Nc3cc(F)c4nc(C)cn4c3)c3nn(C)cc23)C1 (stereo in doubt) [Compound 388, (S)—N-(8-fluoro-2-methylimidazo[1,2-a]pyridin-6-yl)-2-methyl-4-(3-(methylamino)pyrrolidin-1-yl)-2H-indazole-7-carboxamide] |  | 1 to 10
12 | 0.1 to 1 | < 0.1 | > 10 | < 0.1 | < 0.1 | 0.1 to 1 | Cc1cn2cc(NC(=O)c3c(F)cc(N4CCC(N(C)C)C4)c4cn(C)nc34)cc(F)c2n1 (stereo in doubt) [Compound 463, 4-[(3R)-3-(dimethylamino)pyrrolidin-1-yl]-6-fluoro-N-{8-fluoro-2-methylimidazo[1,2-a]pyridin-6-yl}-2-methylindazole-7-carboxamide] | < 0.1 | 0.1 to 1
13 | 0.1 to 1 | < 0.1 | 1 to 10 | < 0.1 | < 0.1 | 0.1 to 1 | Cc1cn2cc(NC(=O)c3c(F)cc(N4CCC(N(C)C)C4)c4cn(C)nc34)cc(F)c2n1 (stereo in doubt) [Compound 464, 4-[(3S)-3-(dimethylamino)pyrrolidin-1-yl]-6-fluoro-N-{8-fluoro-2-methylimidazo[1,2-a]pyridin-6-yl}-2-methylindazole-7-carboxamide] | < 0.1 | 0.1 to 1
14 | > 10 | 0.1 to 1 | > 10 | 0.1 to 1 | 0.1 to 1 | > 10 | Cc1cc2c(N3CCNCC3)ccc(C(=O)Nc3cc(F)c4nc(C)sc4c3)c2o1 [Compound 219] | 1 to 10 | > 10
15 | 0.1 to 1 | < 0.1 | 1 to 10 | < 0.1 | < 0.1 | 0.1 to 1 | Cc1cn2cc(NC(=O)c3ccc(N4CCN(C)C(C)C4)c4cn(C)nc34)cc(F)c2n1 (stereo not shown) [Compound 229] | < 0.1 | 0.1 to 1
16 | > 10 | > 10 | > 10 | > 10 | > 10 | > 10 | Cn1cc2ccc(NC(=O)c3ccc(N4CCNCC4)c4cn(C)nc34)cc2n1 [Compound 230] | > 10 | > 10
17 | > 10 | > 10 | > 10 | > 10 | > 10 | > 10 | Cn1cc2c(F)cc(NC(=O)c3ccc(N4CCNCC4)c4cn(C)nc34)cc2n1 [Compound 231] | > 10 | > 10
18 | 1 to 10 | < 0.1 | > 10 | 0.1 to 1 | 0.1 to 1 | 1 to 10 | Cc1nc2c(F)cc(NC(=O)c3ccc(N4CCNCC4)c4cn(C)nc34)cc2s1 [Compound 235] | 0.1 to 1 | 1 to 10
